Data set [1] has as its system 92-1 uveal melanoma cells. The data set can be described thus: Uveal melanoma tumor growth inhibition in vivo, subcutaneous xenograft. On the set-up: species or system Nude mice.
Data set [2] is described as follows: Body weight and tolerability in tumor-bearing mice. It counts as in vivo. The settings on record: all treatments, once daily oral gavage, 3 weeks.
For data set [3], the system named is uveal melanoma, prostate cancer, acute leukemia and histocytic lymphoma cell lines. The data set can be described thus: 3-day growth inhibition (Cell-titer glow), all cell lines of Example 17. It counts as cell-based.
Data set [4] relates to 22RV1. The data set can be described thus: 3-day growth inhibition (Cell-titer glow), 22RV1. It counts as cell-based. The settings on record: Homo sapiens, 72 h; 22RV1, Prostate, 3 days; read-out: Absolute IC50.
Data set [5] deals with 92-1. The data set can be described thus: 3-day growth inhibition (Cell-titer glow), 92-1. Format: cell-based. The conditions noted are these: 72 h; 92-1, Uveal melanoma, 3 days; read-out: Absolute IC50.
Data set [6] concerns EOL1. Kind of data set: 3-day growth inhibition (Cell-titer glow), EOL1. Format: cell-based. The settings on record: Homo sapiens, 72 h; EOL1, Acute myeloid leukemia, 3 days; read-out: Absolute IC50.
Data set [7] relates to MEL202. Kind of data set: 3-day growth inhibition (Cell-titer glow), MEL202. Format: cell-based. The settings on record: 72 h; MEL202, Uveal melanoma, 3 days; read-out: Absolute IC50.
The subject of data set [8] is MP38. The data set can be described thus: 3-day growth inhibition (Cell-titer glow), MP38. The settings on record: 72 h; MP38, Uveal melanoma, 3 days; read-out: Absolute IC50. It counts as cell-based.
For data set [9], the system named is MP41. Kind of data set: 3-day growth inhibition (Cell-titer glow), MP41. The settings on record: 72 h; MP41, Uveal melanoma, 3 days; read-out: Absolute IC50. Format: cell-based.
The subject of data set [10] is MP46. The data set can be described thus: 3-day growth inhibition (Cell-titer glow), MP46. Format: cell-based. The conditions noted are these: 72 h; MP46, Uveal melanoma, 3 days; read-out: Absolute IC50.
The test system of data set [11] is THP1. Kind of data set: 3-day growth inhibition (Cell-titer glow), THP1. Format: cell-based. The settings on record: Homo sapiens, THP-1, 72 h; THP1, Acute monocytic leukemia, 3 days; read-out: Absolute IC50.
Data set [12] relates to U937. Kind of data set: 3-day growth inhibition (Cell-titer glow), U937. Format: cell-based. The conditions noted are these: Homo sapiens, U-937, 72 h; U937, Histiocytic lymphoma, 3 days; read-out: Absolute IC50.
Data set [13] relates to Uveal melanoma cell lines, 92-1 or MP41. Kind of data set: 3-day growth inhibition compared with clinical PKC and MEK inhibitors (Cell-titer glow). Format: cell-based. The conditions noted are these: 0 to 10 μM, 3 days.
For data set [14], the system named is Uveal melanoma cell lines (92-1, MP41, MP38, MP46) and non-small cell lung cancer cells (NCIH1299). Kind of data set: 3-day growth inhibition (Cell-titer glow), Example 12. Format: cell-based. The settings on record: 0 to 10 μM, 3 days; FIG. 6.
Data set [15] deals with PKC inhibitor (PKCi)-resistant MP41 uveal melanoma cells. The data set can be described thus: 7-day growth inhibition assay, PKC inhibitor-resistant cells. It counts as cell-based.
In data set [16] the test system is uveal melanoma, hematologic cancer, prostate cancer, breast cancer, and Ewing's sarcoma cell lines. The conditions noted are these: breast cancer and Ewing's sarcoma lines vs the other tested cell lines, 0 to 10 μM, FIG. 4.
The test system of data set [17] is parental MP41 cells. The data set can be described thus: 7-day growth inhibition assay, parental cells. The settings on record: parental MP41, 7-day; FIG. 10.
The target of data set [18] is T1, BRG1 (Homo sapiens, UniProt P51532).
T1 construct: made in house; host or cells: High Five insect cells
T1 sequence (P51532 whole entry): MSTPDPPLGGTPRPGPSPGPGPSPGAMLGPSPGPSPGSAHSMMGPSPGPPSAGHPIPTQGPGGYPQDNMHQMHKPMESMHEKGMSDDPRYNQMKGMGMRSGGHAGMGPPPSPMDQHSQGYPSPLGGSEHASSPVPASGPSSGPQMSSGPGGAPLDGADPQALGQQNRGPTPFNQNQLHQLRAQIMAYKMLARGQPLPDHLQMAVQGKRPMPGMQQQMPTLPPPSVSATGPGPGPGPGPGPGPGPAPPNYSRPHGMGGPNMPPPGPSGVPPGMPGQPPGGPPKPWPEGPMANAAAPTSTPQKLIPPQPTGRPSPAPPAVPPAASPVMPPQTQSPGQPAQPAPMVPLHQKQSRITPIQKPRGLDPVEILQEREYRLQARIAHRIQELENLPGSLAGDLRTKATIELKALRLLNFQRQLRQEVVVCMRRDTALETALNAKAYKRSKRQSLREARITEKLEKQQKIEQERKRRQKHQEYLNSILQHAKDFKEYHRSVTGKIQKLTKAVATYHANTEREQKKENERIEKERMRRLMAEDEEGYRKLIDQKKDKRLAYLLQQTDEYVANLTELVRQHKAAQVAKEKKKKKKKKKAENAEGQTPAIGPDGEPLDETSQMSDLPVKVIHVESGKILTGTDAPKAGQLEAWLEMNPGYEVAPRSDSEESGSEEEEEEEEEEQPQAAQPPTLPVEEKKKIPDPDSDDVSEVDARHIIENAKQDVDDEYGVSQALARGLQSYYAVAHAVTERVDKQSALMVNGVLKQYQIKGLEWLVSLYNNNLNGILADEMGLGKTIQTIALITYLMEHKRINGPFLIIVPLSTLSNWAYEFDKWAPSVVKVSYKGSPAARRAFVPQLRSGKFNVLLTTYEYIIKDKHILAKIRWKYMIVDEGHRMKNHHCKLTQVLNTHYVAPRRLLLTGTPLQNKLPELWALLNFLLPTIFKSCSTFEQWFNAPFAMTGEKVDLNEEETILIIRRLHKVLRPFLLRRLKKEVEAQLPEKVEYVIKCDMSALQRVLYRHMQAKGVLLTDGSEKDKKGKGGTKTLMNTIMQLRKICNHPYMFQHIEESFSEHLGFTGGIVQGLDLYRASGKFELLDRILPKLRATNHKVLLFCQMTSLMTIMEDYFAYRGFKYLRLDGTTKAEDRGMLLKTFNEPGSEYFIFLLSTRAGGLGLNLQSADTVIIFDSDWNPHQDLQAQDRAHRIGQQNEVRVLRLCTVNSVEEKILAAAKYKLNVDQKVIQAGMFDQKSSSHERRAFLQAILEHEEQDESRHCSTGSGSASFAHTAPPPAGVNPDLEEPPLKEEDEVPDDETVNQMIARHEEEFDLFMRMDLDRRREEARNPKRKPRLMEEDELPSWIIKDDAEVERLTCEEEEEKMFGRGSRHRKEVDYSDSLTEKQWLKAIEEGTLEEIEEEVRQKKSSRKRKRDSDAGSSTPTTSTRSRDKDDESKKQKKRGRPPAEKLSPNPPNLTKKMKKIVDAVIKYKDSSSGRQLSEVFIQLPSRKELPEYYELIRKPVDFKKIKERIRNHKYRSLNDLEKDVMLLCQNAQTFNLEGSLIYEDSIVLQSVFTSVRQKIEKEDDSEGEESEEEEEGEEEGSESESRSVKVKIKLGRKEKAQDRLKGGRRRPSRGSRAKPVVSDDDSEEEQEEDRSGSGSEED
The data set can be described thus: ATPase catalytic activity of BRG-1, in vitro biochemical assay using ADP-Glo. The settings on record: 30 nM BRG-1, 400 μM ATP, 1 hour room temperature; read-out: IP50 against BRG1. (In general: ADP-Glo turns the ADP formed in a reaction into a luminescent signal.)

As to `COC[C@H](NC(=O)c1ccn(S(C)(=O)=O)c1)C(=O)Nc1nc(-c2cccc(N3C[C@@H](C)O[C@@H](C)C3)n2)cs1` [N—((S)-1-((4-(6-(cis-2,6-dimethylmorpholino)pyridin-2-yl)thiazol-2-yl)amino)-3-methoxy-1-oxopropan-2-yl)-1-(methylsulfonyl)-1H-pyrrole-3-carboxamide], in data set [1] ([…] once daily oral gavage), the “tumor response at the highest dose” value was “tumor regression”. Further, the tumor growth inhibition entry in data set [1] (once daily oral gavage, increasing doses, 3 weeks) is on record as “tumor growth inhibition in a dose-dependent manner”. For the same compound, in [2], the tolerability result was “well tolerated”. Moreover, the IC50 was below 350 nM in data set [3] (72 h, 3 days of compound treatment, read-out: absolute IC50 values, all cell lines tested); 29.7 nM in data set [4]; 0.3 nM in [5]; 75.5 nM in data set [6]; 62.3 nM in data set [7]; 31.5 nM in [8]. The IC50 stood at 11.8 nM in data set [9], 113 nM in data set [10], 345 nM in data set [11] and 14.8 nM in data set [12]. In addition, the growth inhibition entry in [3] (3 days, 0 to 2 μM (uveal melanoma lines) or 0 to 1 μM (other lines), FIG. 14) was “potent growth inhibition”.

For the compound `CSCC[C@H](NC(=O)c1ccn(S(C)(=O)=O)c1)C(=O)Nc1nc(-c2cccc(-c3ccncc3)c2)cs1` [Compound B], the “growth inhibition compared with the clinical PKC (LXS196) and MEK (Selumetinib) inhibitors” value in [13] was “more potent effects on growth inhibition”. Besides, in data set [13], the “onset of growth inhibition compared with the clinical PKC and MEK inhibitors” value is reported as “faster onset of growth inhibition”. Also, the growth inhibition entry was “potent growth inhibition” in data set [14]; “strong growth inhibition” in [15] (PKCi-resistant MP41, 7-day, FIG. 10); “strong growth inhibition” in [17]. In addition, in [16], the “sensitivity of cell lines to BRG1/BRM inhibition” value is “more sensitive”.

On to `CC1(N)CCN(c2cccnc2NC(=O)c2nc(-c3ncccc3C(F)(F)F)cnc2N)CC1` [LXS196, reference compound], for which the “sensitivity of PKCi-resistant cells relative to parental MP41 cells” value in data set [15] (7-day, FIG. 9 and FIG. 10) is listed as “could tolerate growth at higher concentrations”.

For `CSOC[C@H](NC(=O)c1ccc(N)cc1)C(=O)Nc1nc(-c2cccc(-c3ccncc3)c2)cs1` [Compound A], in [18], the IC50 came out at 19.3 nM. Further, in data set [13], the “growth inhibition compared with the clinical PKC (LXS196) and MEK (Selumetinib) inhibitors” value is listed as “comparable growth inhibition”; the “onset of growth inhibition compared with the clinical PKC and MEK inhibitors” value is given as “faster onset of inhibition”.
